Experiments:
[1] = target: HER-2 (Homo sapiens, UniProt P04626); assay: Kinase inhibition HER-2; type: biochemical
[2] = target: Tek (Homo sapiens, UniProt Q02763); assay: Kinase inhibition Tek; type: biochemical
[3] = target: c-Kit (Homo sapiens, UniProt P10721); assay: Kinase inhibition c-Kit; type: biochemical
[4] = target: PDGFR-β (Homo sapiens, UniProt P09619); assay: Kinase inhibition PDGFR-β; type: biochemical
[5] = target: Flt-1 (Homo sapiens, UniProt P17948); assay: Kinase inhibition Flt-1; type: biochemical
[6] = system: P19 cells; assay: Neuronal differentiation in P19 cell monolayers (morphology, immunostaining with neuronal markers); type: cell-based; conditions: 1 μM
[7] = target: HER-1 (Homo sapiens, UniProt P00533); assay: Kinase inhibition HER-1; type: biochemical
[8] = target: c-src (Homo sapiens, UniProt P12931); assay: Kinase inhibition c-src; type: biochemical
[9] = target: Flt-4 (Homo sapiens, UniProt P35916); assay: Kinase inhibition Flt-4; type: biochemical
[10] = system: GSK-3β/β-catenin signaling; assay: GSK-3β/β-catenin-dependent signaling, TCF/LEF (pTOPFLASH) luciferase reporter in P19 cells; type: cell-based; conditions: 10 μM, 36 hours
Experimental: P19 cells are co-transfected with pTOPFLASH (containing four consensus LEF-1/TCF-1 binding sites, a minimal promoter and a firefly luciferase reporter) and renilla luciferase control reporter (Promega). […] Thirty-six hours later, cells are lysed and protein extracts are assayed for luciferase activity. The fold induction offirefly luciferase activity is normalized to renilla luciferase activity. The normalized activities are averaged over three experiments.

[11] = target: KDR (Homo sapiens, UniProt P35968); assay: Kinase inhibition KDR; type: biochemical
[12] = target: c-Abl (Homo sapiens, UniProt P00519); assay: Kinase inhibition c-Abl; type: biochemical
c-Abl, sequence (P00519 whole entry): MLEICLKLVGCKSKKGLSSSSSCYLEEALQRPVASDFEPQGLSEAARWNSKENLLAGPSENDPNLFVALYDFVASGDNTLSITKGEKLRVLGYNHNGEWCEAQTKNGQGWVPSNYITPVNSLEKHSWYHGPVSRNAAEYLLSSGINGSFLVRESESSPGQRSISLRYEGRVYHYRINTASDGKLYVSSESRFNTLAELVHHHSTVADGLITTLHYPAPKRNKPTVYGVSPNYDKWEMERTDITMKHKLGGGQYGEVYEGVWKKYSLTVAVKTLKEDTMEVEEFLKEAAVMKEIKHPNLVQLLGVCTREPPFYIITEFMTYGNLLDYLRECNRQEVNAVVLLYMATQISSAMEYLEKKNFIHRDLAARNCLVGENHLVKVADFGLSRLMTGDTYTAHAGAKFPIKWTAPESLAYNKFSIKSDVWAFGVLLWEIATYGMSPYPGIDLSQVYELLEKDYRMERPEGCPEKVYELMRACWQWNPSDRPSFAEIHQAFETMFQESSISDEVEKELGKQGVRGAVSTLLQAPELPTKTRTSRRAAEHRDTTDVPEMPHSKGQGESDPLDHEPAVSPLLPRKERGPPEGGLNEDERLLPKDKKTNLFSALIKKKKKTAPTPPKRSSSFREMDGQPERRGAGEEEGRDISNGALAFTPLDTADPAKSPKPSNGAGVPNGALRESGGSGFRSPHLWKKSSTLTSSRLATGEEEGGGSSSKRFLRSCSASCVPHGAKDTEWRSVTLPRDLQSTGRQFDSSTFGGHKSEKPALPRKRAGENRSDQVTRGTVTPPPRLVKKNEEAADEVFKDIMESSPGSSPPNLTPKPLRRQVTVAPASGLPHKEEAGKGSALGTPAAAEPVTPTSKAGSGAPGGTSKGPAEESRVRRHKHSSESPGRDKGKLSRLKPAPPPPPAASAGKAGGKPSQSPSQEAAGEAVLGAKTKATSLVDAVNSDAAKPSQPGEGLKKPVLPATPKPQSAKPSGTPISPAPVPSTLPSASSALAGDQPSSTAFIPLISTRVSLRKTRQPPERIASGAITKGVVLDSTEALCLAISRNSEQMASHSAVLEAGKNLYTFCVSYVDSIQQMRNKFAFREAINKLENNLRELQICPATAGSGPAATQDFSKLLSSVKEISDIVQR

c-Kit, sequence (P10721 26-976): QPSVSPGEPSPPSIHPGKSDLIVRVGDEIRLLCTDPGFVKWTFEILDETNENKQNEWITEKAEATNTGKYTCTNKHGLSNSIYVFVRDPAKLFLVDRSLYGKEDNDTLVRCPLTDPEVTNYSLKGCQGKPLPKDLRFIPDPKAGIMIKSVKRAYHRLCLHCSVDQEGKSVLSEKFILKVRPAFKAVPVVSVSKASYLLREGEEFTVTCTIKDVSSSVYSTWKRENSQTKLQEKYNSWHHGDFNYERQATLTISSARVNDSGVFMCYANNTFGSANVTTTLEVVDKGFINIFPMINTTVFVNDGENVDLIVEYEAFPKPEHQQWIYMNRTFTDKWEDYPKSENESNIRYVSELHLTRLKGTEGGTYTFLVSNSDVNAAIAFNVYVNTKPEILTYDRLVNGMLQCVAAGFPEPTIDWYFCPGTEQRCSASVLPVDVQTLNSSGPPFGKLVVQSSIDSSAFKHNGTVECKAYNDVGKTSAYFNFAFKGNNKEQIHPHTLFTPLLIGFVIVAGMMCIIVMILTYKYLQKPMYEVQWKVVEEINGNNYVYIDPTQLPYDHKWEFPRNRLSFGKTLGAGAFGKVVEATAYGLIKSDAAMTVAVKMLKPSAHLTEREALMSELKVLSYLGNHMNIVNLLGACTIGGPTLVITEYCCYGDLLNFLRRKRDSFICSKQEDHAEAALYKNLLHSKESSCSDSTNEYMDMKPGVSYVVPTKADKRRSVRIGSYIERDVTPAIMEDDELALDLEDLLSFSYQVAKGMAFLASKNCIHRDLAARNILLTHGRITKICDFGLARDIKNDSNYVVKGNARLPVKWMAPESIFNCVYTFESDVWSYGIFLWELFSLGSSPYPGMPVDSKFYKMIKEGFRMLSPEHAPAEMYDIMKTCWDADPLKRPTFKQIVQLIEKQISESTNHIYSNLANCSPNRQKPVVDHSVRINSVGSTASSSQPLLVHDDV
HER-2, sequence (P04626 23-1255, species assumed): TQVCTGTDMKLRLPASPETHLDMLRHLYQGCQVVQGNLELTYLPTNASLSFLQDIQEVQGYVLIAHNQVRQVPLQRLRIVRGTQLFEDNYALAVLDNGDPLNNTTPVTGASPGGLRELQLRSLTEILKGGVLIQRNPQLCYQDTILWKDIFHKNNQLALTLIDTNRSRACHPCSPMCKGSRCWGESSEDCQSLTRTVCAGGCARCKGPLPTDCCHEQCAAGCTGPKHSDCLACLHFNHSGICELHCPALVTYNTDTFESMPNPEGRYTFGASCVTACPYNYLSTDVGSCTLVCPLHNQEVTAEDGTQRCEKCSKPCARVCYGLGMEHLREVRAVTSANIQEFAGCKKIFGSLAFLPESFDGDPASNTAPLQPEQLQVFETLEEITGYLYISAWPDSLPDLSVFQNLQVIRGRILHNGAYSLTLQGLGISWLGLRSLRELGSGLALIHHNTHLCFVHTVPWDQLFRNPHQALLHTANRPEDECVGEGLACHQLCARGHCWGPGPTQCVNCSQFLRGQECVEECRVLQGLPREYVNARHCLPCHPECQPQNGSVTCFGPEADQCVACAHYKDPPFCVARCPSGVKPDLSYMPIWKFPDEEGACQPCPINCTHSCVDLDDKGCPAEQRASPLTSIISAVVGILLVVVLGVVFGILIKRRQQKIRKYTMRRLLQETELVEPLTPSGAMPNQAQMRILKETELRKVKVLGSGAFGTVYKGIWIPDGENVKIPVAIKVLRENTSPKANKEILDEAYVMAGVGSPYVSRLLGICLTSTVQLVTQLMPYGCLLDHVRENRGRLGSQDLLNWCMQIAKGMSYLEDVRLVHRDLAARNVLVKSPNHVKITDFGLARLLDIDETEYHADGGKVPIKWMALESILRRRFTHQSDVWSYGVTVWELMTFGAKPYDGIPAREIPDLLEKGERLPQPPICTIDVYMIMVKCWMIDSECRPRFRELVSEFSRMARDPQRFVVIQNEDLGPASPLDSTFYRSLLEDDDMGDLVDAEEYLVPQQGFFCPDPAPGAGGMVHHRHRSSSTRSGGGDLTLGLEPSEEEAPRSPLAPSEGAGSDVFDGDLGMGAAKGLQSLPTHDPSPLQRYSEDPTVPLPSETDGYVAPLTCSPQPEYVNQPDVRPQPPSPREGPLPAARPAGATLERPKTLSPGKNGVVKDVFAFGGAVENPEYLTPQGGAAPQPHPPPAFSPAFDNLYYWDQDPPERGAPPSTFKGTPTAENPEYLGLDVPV
c-src, sequence (P12931 whole entry, species assumed): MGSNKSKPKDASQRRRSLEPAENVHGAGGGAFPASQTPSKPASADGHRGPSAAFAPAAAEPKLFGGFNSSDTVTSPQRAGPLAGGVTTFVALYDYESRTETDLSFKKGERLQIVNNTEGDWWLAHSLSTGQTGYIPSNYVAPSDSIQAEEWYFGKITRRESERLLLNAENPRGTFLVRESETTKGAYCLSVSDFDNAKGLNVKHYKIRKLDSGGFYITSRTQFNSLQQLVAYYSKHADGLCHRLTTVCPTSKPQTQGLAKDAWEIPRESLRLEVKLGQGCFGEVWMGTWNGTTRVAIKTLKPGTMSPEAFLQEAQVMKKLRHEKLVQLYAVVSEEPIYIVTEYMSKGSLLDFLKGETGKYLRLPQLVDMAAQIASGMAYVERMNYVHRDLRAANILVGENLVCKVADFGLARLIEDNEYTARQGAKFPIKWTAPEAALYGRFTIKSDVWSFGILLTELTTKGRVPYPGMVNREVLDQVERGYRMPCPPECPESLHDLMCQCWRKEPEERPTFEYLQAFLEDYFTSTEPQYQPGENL
Tek, sequence (Q02763 23-1124, species assumed): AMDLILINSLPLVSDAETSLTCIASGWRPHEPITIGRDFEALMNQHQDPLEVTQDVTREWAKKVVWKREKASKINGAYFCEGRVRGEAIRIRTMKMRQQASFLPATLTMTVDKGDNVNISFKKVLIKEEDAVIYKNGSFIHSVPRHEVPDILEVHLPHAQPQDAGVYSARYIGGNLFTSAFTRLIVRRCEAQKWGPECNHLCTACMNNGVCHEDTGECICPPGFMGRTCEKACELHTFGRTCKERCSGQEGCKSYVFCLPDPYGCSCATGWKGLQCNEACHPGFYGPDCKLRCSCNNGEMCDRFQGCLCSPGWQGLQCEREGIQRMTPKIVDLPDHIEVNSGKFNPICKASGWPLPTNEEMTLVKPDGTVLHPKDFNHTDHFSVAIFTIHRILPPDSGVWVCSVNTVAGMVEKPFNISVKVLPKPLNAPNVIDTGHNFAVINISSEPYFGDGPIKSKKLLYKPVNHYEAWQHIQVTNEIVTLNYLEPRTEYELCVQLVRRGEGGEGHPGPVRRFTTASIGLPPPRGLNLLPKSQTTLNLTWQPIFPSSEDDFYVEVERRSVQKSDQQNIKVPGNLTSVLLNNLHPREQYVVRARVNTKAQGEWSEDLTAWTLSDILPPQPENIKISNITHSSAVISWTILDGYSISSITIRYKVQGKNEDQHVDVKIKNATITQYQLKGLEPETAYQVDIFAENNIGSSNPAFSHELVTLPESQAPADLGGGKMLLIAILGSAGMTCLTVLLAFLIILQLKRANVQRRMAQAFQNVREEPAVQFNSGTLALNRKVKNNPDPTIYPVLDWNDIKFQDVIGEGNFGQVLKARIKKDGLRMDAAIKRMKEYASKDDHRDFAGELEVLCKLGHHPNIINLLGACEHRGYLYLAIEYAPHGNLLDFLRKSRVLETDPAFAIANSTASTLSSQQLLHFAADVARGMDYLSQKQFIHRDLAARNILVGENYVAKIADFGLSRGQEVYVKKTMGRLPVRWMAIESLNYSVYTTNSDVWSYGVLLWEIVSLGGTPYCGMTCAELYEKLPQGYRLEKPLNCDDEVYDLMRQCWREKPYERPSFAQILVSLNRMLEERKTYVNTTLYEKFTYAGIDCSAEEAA

SMILES: Nc1cccc(-c2cc3c(Oc4cccc(O)c4)ncnc3[nH]2)c1 [Example 1, 3-[6-(3-Amino-phenyl)-7H-pyrrolo[2,3-d]pyrimidin-4-yloxy]-phenol]
- inhibition at 10 µM ([1]; 10 μM): 100%
- IC50 ([1]; read-out: IC50 against HER-2): 30 nM
- inhibition at 10 µM [2]: 100%
- inhibition at 10 µM ([3]; 10 μM): 100%
- IC50 ([3]; read-out: IC50 against c-Kit): 20 nM
- inhibition at 10 µM [4]: 100%
- inhibition at 10 µM [5]: 100%
- differentiation of P19 cells into glial and muscle cells [6]: not detected
- nestin immunostaining of the remaining cells (neuronal progenitor cells) [6]: immunostained positively for nestin
- cells differentiating specifically into neuronal lineages ([6]; monolayers of P19 cells, neuronal morphology and immunostaining with neuronal specific markers): 30-40%
- inhibition at 10 µM [7]: 100%
- inhibition at 10 µM [8]: 100%
- inhibition at 10 µM [9]: 100%
- increase in β-catenin induced TCF/LEF reporter activity [10]: eleven
- inhibition at 10 µM [11]: 100%
- inhibition at 10 µM ([12]; 10 μM): 100%
- IC50 ([12]; read-out: IC50 against c-Abl): 4.5 nM
